The source of these data is publication PMC7179450, “Primary Human Hepatocytes, But not HepG2 or Balb/c 3T3 Cells, Efficiently Metabolize Salinomycin and Are Resistant to Its Cytotoxicity” (Molecules, 2020).

Data set [1] has as its system primary human hepatocytes (PHH). The data set is described as follows: Biotransformation of SAL and metabolites in medium of PHH (LC-MS/MS). It is filed as in vitro ADME. The protocol: (§1) Cryopreserved PHH were purchased from the Primacyt GmbH (Schwerin, Germany). Two different lots were chosen based on CYP activity. The donor was a person. The post-thaw viability was 94.6% for lot HH160531 (used in two repetitions) and 85.0% for lot HH130805. The initial cell viability was determined with the trypan blue exclusion test. The cells were thawed and purified using the Plating and Thawing Kit (Primacyt GmbH). Purified hepatocytes were resuspended in Hepatocyte Plating Medium (Primacyt GmbH) and seeded on collagen-coated 96-well plates at a density of 9 × 10^5 cell/mL and incubated at 37 °C with 5% CO2. After 6 h of incubation, the medium was removed and the cells were washed with PBS. […]
The medium samples from microplate wells were collected for identifying SAL metabolites and normalized to a cell number. An aliquot of 200 µL of each sample was measured to Eppendorf tube. […] The dry residue was reconstituted in 50% acetonitrile and analyzed with LC-MS/MS. […]
SAL (m/z 773.4 to m/z 431.3) was monitored in multiple reaction monitoring (MRM) modes. […]
The signals for further analysis were selected with the LightSight 2.3 software. […] These MRM transitions (with 20 chromatographic peaks) were then quantified with Multiquant 2.1. software. Quantitative analysis was performed for SAL. […]

A further data set relates to rabbits. The note with it: cited from earlier work.
The conditions of data set [2]: in vivo; cited from earlier work.
Data set [3] relates to primary human hepatocytes (PHH). As to the kind of experiment: MTT assay, cytotoxicity in primary human hepatocytes. It is filed as cell-based. The settings on record: Hepatocyte, mean ± SEM, n = 3, read-out: EC50 (effective concentration). The procedure: as §1, with “PBS. Then Human Hepatocyte Maintenance Medium (HHMM) (Primacyt GmbH) with the studied drugs was added to hepatocytes (100 µL/well).” for “PBS.”
The concentration ranges of the drugs were chosen according to their solubility and their plasma level. […] The cytotoxicity was assessed after 24 and 48 h of exposure of cell lines or after 12 and 24 h exposure of PHH. […]
The metabolic activity of living cells was assessed by measuring the activity of dehydrogenases. […] The plate was shaken for 15 min at room temperature and transferred to a microplate reader to measure the absorbance at 570 nm, using a blank as a reference. Cytotoxicity was expressed as a percentage of the negative control (0.1% or 0.2% DMSO).
For orientation: Tetrazolium assays rely on reduction of a dye to a coloured formazan, in cell work by metabolically active cells.

Read-outs that look alike come from different tables or passages of the source.

In the case of `CC[C@@H](C(=O)[C@@H](C)[C@@H](O)[C@H](C)[C@@H]1O[C@@H]([C@@H](CC)C(=O)O)CC[C@@H]1C)[C@H]1O[C@]2(C=C[C@@H](O)[C@]3(CC[C@@](C)([C@H]4CC[C@](O)(CC)[C@H](C)O4)O3)O2)[C@H](C)C[C@@H]1C` [SAL, salinomycin], the “SAL metabolised, share of the dose” value in data set [1] (PHH) was “up to 90%”. For the same compound, the “maximum percentage of bio-transformed SAL” value in data set [1] (PHH co-exposed with tiamulin) was found to be 25%. Also, the LD50 with rabbits is 21 mg/kg b.w. In addition, the “unchanged SAL in excreta, share of administered dose” value in data set [2] was 2%. The EC50 in data set [3] (12 h exposure) and in data set [3] (24 h exposure) was above 25 µg/mL each time.
